Assay results from PMC2346451 (PLoS ONE, 2008).
pKd: −log10 of the molar value.

Target: T1, rat TRPV2 (rTRPV2) (Rattus norvegicus, UniProt Q9WUD2)
T1 construct: expressed in transfected cells; host or cells: HEK-293T
T1 sequence (Q9WUD2 1-761): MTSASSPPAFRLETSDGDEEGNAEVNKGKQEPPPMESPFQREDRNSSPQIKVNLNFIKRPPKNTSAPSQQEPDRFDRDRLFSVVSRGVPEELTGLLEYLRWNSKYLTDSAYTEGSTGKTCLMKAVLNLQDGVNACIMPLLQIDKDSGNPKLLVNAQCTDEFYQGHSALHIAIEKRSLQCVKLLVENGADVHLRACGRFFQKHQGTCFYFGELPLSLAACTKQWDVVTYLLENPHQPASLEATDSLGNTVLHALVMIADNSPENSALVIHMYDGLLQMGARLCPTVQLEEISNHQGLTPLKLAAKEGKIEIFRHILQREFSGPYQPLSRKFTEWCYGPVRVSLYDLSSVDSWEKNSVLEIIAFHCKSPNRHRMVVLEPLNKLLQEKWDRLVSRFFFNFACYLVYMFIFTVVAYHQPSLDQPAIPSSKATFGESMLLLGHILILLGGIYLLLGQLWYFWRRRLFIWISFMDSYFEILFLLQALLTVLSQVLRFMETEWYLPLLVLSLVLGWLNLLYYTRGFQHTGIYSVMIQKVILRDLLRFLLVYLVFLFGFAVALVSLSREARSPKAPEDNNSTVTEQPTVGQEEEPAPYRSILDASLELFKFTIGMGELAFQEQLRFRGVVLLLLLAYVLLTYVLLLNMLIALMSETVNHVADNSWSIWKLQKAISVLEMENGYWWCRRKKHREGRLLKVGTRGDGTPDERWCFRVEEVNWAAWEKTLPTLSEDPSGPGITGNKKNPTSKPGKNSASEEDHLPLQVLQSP
Assay: Whole-cell patch clamp of rat TRPV2 expressed in HEK-293T cells
Format: cell-based
Set-up: key to Agonist efficacy: Ø - not activated
Settings: for Increase of agonist-evoked current prior to onset of inhibition: citral 1 mM, n = 10
Description: Transformed human embryonic kidney-293 (HEK-293T) cells were grown in Dulbecco's modified Eagle's medium (DMEM)+F-12 supplemented with 10% fetal calf serum, and 1% penicillin/streptomycin in 5% CO2 at 37°C. Cells grown to 90% confluence in 35 mm Petri dishes were transiently transfected with plasmid DNA encoding a TRP channel construct (1 µg). Rat TRPV1 (rTRPV1) was cloned into an enhanced green fluorescent protein-containing vector (pTracer-CMV2; Invitrogen, Carlsbad, CA). Chicken TRPV1 (cTRPV1), the chicken rat TRPV1 chimera (crcTRPV1), rat TRPV2 (rTRPV2), mouse TRPV3 (mTRPV3), mouse TRPV4 (mTRPV4), rat TRPM8 (rTRPM8), and rat TRPA1 (rTRPA1), were cloned into pcDNA3 and co-transfected with enhanced green fluorescent protein (0.1 µg) to follow expression. The cTRPV1 and crcTRPV1 clones were kindly provided by Dr. David Julius. Recordings were carried out 24–36 hours after transfection. Cells were split via trypsin EDTA, plated on glass coverslips at 5–10% confluence, and used 2–3 hours later.
Electrophysiological experiments were performed using the whole-cell patch-clamp technique at room temperature. Modified Ringer's solution with low chloride and nominal calcium contained (in mM): 130 sodium hydroxide, 5 potassium chloride, 1 magnesium chloride, 10 sodium 4-(2-hydroxyethyl)-1-piperazineethanesulfonic acid, 10 2-(N-morpholino)ethanesulfonic acid, and 20 glucose (pH 7.4; 310 milli-osmolar). […] 2 mM calcium chloride was included in the external solution where noted. To activate TRPV1, the modified Ringer's solution was made at pH 5 (low pH solution) and the chloride concentration was kept to a minimum to prevent contamination of the TRPV1 currents with acid-activated chloride currents. For recordings from heterologously expressing cells, the internal pipette solution contained (in mM): 125 cesium-Methanesulfonate, 10 cesium (1.2-bis(o-aminophenoxy)ethane-N,N,N',N'-tetraacetic acid, 8 sodium chloride, 4 magnesium adenosine triphosphate, and 10 HEPES (pH 7.2; 290 mOSM; nominal free calcium concentrations). For TRPA1 and dorsal root ganglion recordings, the internal pipette solution contained (in mM): 110 cesium-Methanesulfonate, 0.5 cesium4BAPTA, 8 sodium chloride, 0.2 calcium chloride, 4 magnesium-ATP, 4 sodium-GTP, and 10 4-(2-hydroxyethyl)-1-piperazineethanesulfonic acid (pH 7.2; 290 mOSM; 100 nM free calcium internal). MaxChelator was used to calculate the free calcium concentration (http://www.stanford.edu/cpatton/maxc.html).
Recordings were obtained using an Axopatch 200B amplifier, Digidata 1322A analog-to-digital converter, and pClamp 8.01 software (Molecular Devices, Union City, CA). Data were low-pass filtered at 2 kHz and digitized at 5 kHz. Borosilicate glass pipettes (World Precision Instruments, Sarasota, FL) were typically 3 MΩ pipette resistance after fire polishing. Cell capacitance was measured for each cell, and access resistance compensated to ∼80%. Recordings were begun ∼5 minutes after initial rupture to ensure initial steady state conditions. Current-voltage (I-V) relations were obtained using a ramp protocol. Voltage ramps (400 ms) from −100 to +40 or +100 mV were applied every 1–2 seconds and the holding potential was either −70 mV or 0 mV (see Figure Legends). A 40 ms step was added at the beginning and end of the ramp (i.e. at −100 mV, +40 mV or +100 mV). Liquid junction potentials were not corrected.
The dose response curves were fit with the Hill equation, where [drawing 8] and [A] is the concentration of agonist or blocker, N is the Hill coefficient, and KD is the [A] for Imeasured/Imax = 0.5. The term apparent dissociation constant is used in place of the half concentration of excitation and inhibition. […] Averaged data are presented as mean±standard error (S.E.) throughout. Statistical analysis included paired and unpaired Student's t-test comparisons of the data; p values are reported in the text.

CC(C)=CCCC(C)=CC=O [citral, 3,7-dimethyl-2,6-octadienal]
Agonist efficacy: Ø | Reversibility of citral inhibition of agonist-evoked current: essentially irreversible | Increase of agonist-evoked current prior to onset of inhibition (+100 mV): 2.2±0.2 fold | Increase of agonist-evoked current prior to onset of inhibition (−100 mV): 2.5±0.4 fold | Hill coefficient (inhibition) (citral block of 2-aminoethyldiphenyl borate-evoked current): 2.4 | pKd (read-out: Inhibition KD, app): 3.27
